# Experiments:
# Assay type in all cases: functional
# Details in all cases: read-out: ED50 (the source's name)
# SK-MEL-2 = experiment: Cytotoxicity against human SK-MEL-2 cells
# HCT-15 = experiment: Cytotoxicity against human HCT15 cells
# A549 = experiment: Cytotoxicity against human A549 cells
# XF498 = experiment: Cytotoxicity against human XF498 cells
# SK-OV-3 = experiment: Cytotoxicity against human SKOV3 cells
Compound,EC50 (SK-MEL-2),EC50 (HCT-15),EC50 (A549),EC50 (XF498),EC50 (SK-OV-3)
CCCCCCCCCCC/C=C/C[C@@H](OS(=O)(=O)O)[C@@H](O)[C@@H](N)CO,4 µg/mL,3.7 µg/mL,9.9 µg/mL,4.6 µg/mL,8.2 µg/mL
CCCCCCCCCC/C=C/C[C@@H](OS(=O)(=O)O)[C@@H](O)[C@@H](N)CO,0.3 µg/mL,0.3 µg/mL,0.3 µg/mL,0.3 µg/mL,0.3 µg/mL
